# The source made the active and inactive calls. No cut-off for these calls is given here.
# What was measured:
# [1] = tested on: Mycobacterium tuberculosis; assay: Antitubercular activity against Mycobacterium tuberculosis H37Rv by Bactec 460 method; type: functional
# [2] = tested on: Mycobacterium tuberculosis; assay: Antitubercular activity against Mycobacterium tuberculosis H37Rv at 500 ug/ml by Bactec 460 method; type: functional, organism-based
# [3] = tested on: Mus musculus; assay: Acute toxicity in Swiss albino mouse assessed as observational changes at 5 to 300 mg/kg, po administered as single dose; type: organism-based; parameters: dose 5-300 mg/kg, route oral; conditions: in vivo
# [4] = tested on: Mus musculus; assay: Acute toxicity in Swiss albino mouse assessed as morbidity at 5 to 300 mg/kg, po administered as single dose; type: organism-based; parameters: dose 5-300 mg/kg, route oral; conditions: in vivo
# [5] = tested on: Mus musculus; assay: Acute toxicity in Swiss albino mouse assessed as mortality at 5 to 300 mg/kg, po administered as single dose; type: organism-based; parameters: dose 5-300 mg/kg, route oral; conditions: in vivo
# [6] = tested on: Mus musculus; assay: Acute toxicity in Swiss albino mouse assessed as change in total RBC at 5 to 300 mg/kg, po administered as single dose; type: organism-based; parameters: dose 5-300 mg/kg, route oral; conditions: in vivo
# [7] = tested on: Mus musculus; assay: Acute toxicity in Swiss albino mouse assessed as change in total WBC count at 5 to 300 mg/kg, po administered as single dose; type: organism-based; parameters: dose 5-300 mg/kg, route oral; conditions: in vivo
# [8] = tested on: Mus musculus; assay: Acute toxicity in Swiss albino mouse assessed as change in differential leukocyte count at 5 to 300 mg/kg, po administered as single dose; type: organism-based; parameters: dose 5-300 mg/kg, route oral; conditions: in vivo
# [9] = tested on: Mus musculus; assay: Acute toxicity in Swiss albino mouse assessed as change in hemoglobin level at 5 to 300 mg/kg, po administered as single dose; type: organism-based; parameters: dose 5-300 mg/kg, route oral; conditions: in vivo
# [10] = tested on: Mus musculus; assay: Acute toxicity in Swiss albino mouse assessed as change in serum total cholesterol level at 5 to 300 mg/kg, po administered as single dose; type: organism-based; parameters: dose 5-300 mg/kg, route oral; conditions: in vivo
# [11] = tested on: Mus musculus; assay: Acute toxicity in Swiss albino mouse assessed as change in triglyceride level at 5 to 300 mg/kg, po administered as single dose; type: organism-based; parameters: dose 5-300 mg/kg, route oral; conditions: in vivo
# [12] = tested on: Mus musculus; assay: Acute toxicity in Swiss albino mouse assessed as change in creatinine level at 5 to 300 mg/kg, po administered as single dose; type: organism-based; parameters: dose 5-300 mg/kg, route oral; conditions: in vivo
# [13] = tested on: Mus musculus; assay: Acute toxicity in Swiss albino mouse assessed as change in SGPT level at 5 to 300 mg/kg, po administered as single dose; type: organism-based; parameters: dose 5-300 mg/kg, route oral; conditions: in vivo
# [14] = tested on: Mus musculus; assay: Acute toxicity in Swiss albino mouse assessed as change in SGOT level at 5 to 300 mg/kg, po administered as single dose; type: organism-based; parameters: dose 5-300 mg/kg, route oral; conditions: in vivo
# [15] = tested on: Mus musculus; assay: Acute toxicity in Swiss albino mouse assessed as change in absolute and relative weight of the organs at 5 to 300 mg/kg, po administered as single dose; type: organism-based; parameters: dose 5-300 mg/kg, route oral; conditions: in vivo
# [16] = Acute toxicity in po dosed Swiss albino mouse administered as single dose; type: organism-based; conditions: in vivo
compound,measurement,setting,value
COc1ccc2c(c1)CCCC2OC(C)=O (configuration not stated),MIC,[1],30 µg/mL
O=CC1=C(Cl)c2ccccc2CC1,MIC,[1],60 µg/mL
Cc1ccc2c(c1)CC(C=O)=C2Cl,MIC,[1],250 µg/mL
CC1CC(C=O)=C(Cl)c2ccccc21 (configuration not stated),MIC,[1],125 µg/mL
COc1ccc2c(c1)CCCC2O (configuration not stated),Activity,[2],inactive
COc1ccc2c(c1)CCC/C2=N\O,MIC,[1],500 µg/mL
COc1ccc2c(c1)CCCC2,MIC,[1],125 µg/mL
COc1cc(C2C(C=O)=C(Cl)c3cc(OC)c(OC)c(OC)c32)cc(OC)c1OC (configuration not stated),Activity,[2],inactive
O=CC1=C(Cl)c2ccc(Cl)cc2C1,MIC,[1],125 µg/mL
O=CC1=C(Cl)c2ccccc2C1c1ccccc1 (configuration not stated),MIC,[1],250 µg/mL
CO[C@H]1CCC(=O)c2cccc(O)c21,MIC,[1],6.25 µg/mL
Cc1cccc2c1C(Cl)=C(C=O)C2,MIC,[1],125 µg/mL
O=CC1=C(Cl)c2cc3c(cc2C1)OCO3,MIC,[1],125 µg/mL
COc1ccc2c(c1)CCC(CO)=C2Cl,MIC,[1],500 µg/mL
COc1ccc2c(c1)CC(C=O)=C2Cl,MIC,[1],125 µg/mL
CN[C@@H]1[C@H](O[C@H]2[C@H](O[C@H]3[C@H](O)[C@@H](O)[C@H](N=C(N)N)[C@@H](O)[C@@H]3N=C(N)N)O[C@@H](C)[C@]2(O)C=O)O[C@@H](CO)[C@H](O)[C@H]1O [STREPTOMYCIN],MIC,[1],2 µg/mL
CO[C@H]1/C=C/O[C@@]2(C)Oc3c(C)c(O)c4c(O)c(c(/C=N/N5CCN(C)CC5)c(O)c4c3C2=O)NC(=O)/C(C)=C\C=C\[C@H](C)[C@H](O)[C@@H](C)[C@@H](O)[C@@H](C)[C@H](OC(C)=O)[C@@H]1C [RIFAMPIN],MIC,[1],2 µg/mL
COc1ccc2c(c1)CCC(OC=O)=C2Cl,MIC,[1],30 µg/mL
same,Activity,[3],Non-toxic
same,Activity,[4],Non-toxic
same,Activity,[5],Non-toxic
same,Activity,[6],Non-toxic
same,Activity,[7],Non-toxic
same,Activity,[8],Non-toxic
same,Activity,[9],Non-toxic
same,Activity,[10],Non-toxic
same,Activity,[11],Non-toxic
same,Activity,[12],Non-toxic
same,Activity,[13],Non-toxic
same,Activity,[14],Non-toxic
same,Activity,[15],Non-toxic
same,MTD,[16],300 mg/kg
COc1ccc2c(c1)C(Cl)=C(C=O)C1C2CC[C@@]2(C)C1CC[C@@H]2OC(C)=O (some centres not stated),Activity,[2],inactive
Cc1cc(O)c2c(c1)[C@H](O)CCC2=O [SHINANOLONE],MIC,[1],100 µg/mL
O=Cc1cc2ccccc2c(Cl)c1C=O,MIC,[1],500 µg/mL
COc1cc2c(cc1C=O)C=CCC2,MIC,[1],500 µg/mL
COc1ccc2c(c1)CCC(C=O)=C2Cl,MIC,[1],125 µg/mL

# Source: ChEMBL document CHEMBL1795209, “1-Chloro-2-formyl indenes and tetralenes as antitubercular agents” (Bioorg Med Chem Lett, 2011)
